In patent publication US20240174680A1, “CDK2 INHIBITORS AND METHODS OF USING THE SAME” (Cedilla Therapeutics, Inc., priority 2021, published 2024):

Target: CDK2/Cyclin E1 (Homo sapiens, UniProt P24941)
Experiment: CDK2/Cyclin E1 Caliper LabChip EZ Reader mobility shift assay
Assay type: biochemical
Parameters: purchased Eurofins 14-475
Conditions: read-out: Caliper Assay (CDK2/CCNE1): IC50
Method: Inhibition of CDK2/Cyclin E1 activity in the presence of compounds of the present disclosure was evaluated using a Caliper LabChip® EZ Reader mobility shift assay. In the assay, CDK2/Cyclin E1 (Eurofins, 14-475) catalyzed the phosphorylation of a fluorescently tagged peptide 5-FAM-QSPKKG-CONH2 (PerkinElmer, FL Peptide 18) which induced a difference in capillary electrophoresis mobility. The peptide substrate and product were measured, and the conversion ratio was used to determine the inhibition (as % activity and IC50 values) of CDK2/Cyclin E1. Reactions contained 50 mM HEPES pH 7.5, 10 mM MgCl2, 1 mM EDTA, 2 mM DTT, 0.01% Brij35, 0.5 mg/mL BSA, 0.1% DMSO, 2.5 nM CDK2/Cyclin E1, 100 μM ATP, and 1.5 μM fluorescent peptide substrate.
Dose titrations of inhibitors in 100% DMSO were combined with 3.25 nM CDK2/Cyclin E1 and 130 μM of ATP in reaction buffer. The mixtures were incubated for 30 minutes before the addition of fluorescent peptide substrate to initiate the kinase reaction. The final conditions were 2.5 nM CDK2/Cyclin E1, 100 μM ATP, and 1.5 μM fluorescent peptide. The reactions were stopped after 100 minutes with the addition of EDTA (400 mM final EDTA concentration). The stopped reactions were analyzed on a Caliper LabChip® EZ Reader II. The conversion ratios were normalized to yield % activity, plotted against compound concentration, and fit to a four-parameter equation to determine the IC50 for each compound.

SMILES	IC50 [nM]
CNC(=O)[C@@H](NC(=O)[C@@H]1CN(C(=O)c2cnn(Cc3ccccc3)c2)CC12CN(C(=O)C1(CCOC)CC1)C2)[C@@H](C)OCc1ccccc1 [I-102A]	> 10000
C[C@@H](OCC1CCCCC1)[C@H](NC(=O)[C@H]1CN(C(=O)c2cn[nH]c2)CC12CN(C(=O)[C@H]1CC1(C)C)C2)C(=O)N1CCCCC1 [I-151B]	1000 to 10000
CNC(=O)[C@@H](NC(=O)[C@H]1CN(C(=O)c2cnn(Cc3ccccc3)c2)CC12CN(C(=O)C1(F)CC1)C2)[C@@H](C)OCc1ccccc1 [I-71B]	> 10000
CC1(C)C[C@@H]1C(=O)N1CC2(CN(C(=O)c3cnn(Cc4ccccc4)c3)C[C@@H]2C(=O)Nc2cccc(Cc3ccccc3)c2)C1 [I-75B]	1000 to 10000
CNC(=O)[C@@H](NC(=O)[C@H]1CN(C(=O)c2sc(Cl)nc2C)CC12CN(C(=O)[C@H]1CC1(C)C)C2)[C@@H](C)OCC1CCCCC1 [I-208B]	100 to 1000
CNC(=O)[C@@H](NC(=O)C1(C)CN(C(=O)c2cnn(Cc3ccccc3)c2)CC12CN(C(=O)[C@H]1CC1(C)C)C2)[C@@H](C)OCc1ccccc1 (stereo partly drawn) [I-498, 6-(1-benzyl-1H-pyrazole-4-carbonyl)-N-((2S,3R)-3-(benzyloxy)-1-(methylamino)-1-oxobutan-2-yl)-2-((S)-2,2-dimethylcyclopropane-1-carbonyl)-8-methyl-2,6-diazaspiro[3.4]octane-8-carboxamide]	1000 to 10000
CNC(=O)[C@@H](NC(=O)[C@@H]1CN(C(=O)c2cnn(Cc3ccccc3)c2)CC12CN(C(=O)CC(F)(F)F)C2)[C@@H](C)OCc1ccccc1 [I-87A]	100 to 1000
CNC(=O)[C@@H](NC(=O)[C@@H]1CN(C(=O)c2cnn(Cc3ccccc3)c2)CC12CN(C(=O)C(C)C)C2)[C@@H](C)OCc1ccccc1 [I-54A]	100 to 1000
CNC(=O)C(NC(=O)[C@@H]1CN(C(=O)c2cncs2)CC12CN(C(=O)[C@H]1CC1(C)C)C2)c1ccc(C)nn1 (stereo partly drawn) [I-420]	> 10000
CNC(=O)[C@@H](NC(=O)[C@H]1CN(C(=O)c2cnn(CC3CCN(C)CC3)c2)CC12CN(C(=O)[C@H]1CC1(C)C)C2)[C@@H](C)OCc1ccccc1 [I-23B]	> 10000
CNC(=O)[C@@H](NC(=O)[C@@H]1CN(C(=O)c2cnn(CC3CC3)c2)CC12CN(C(=O)CC1CC1)C2)[C@@H](C)OCc1ccccc1 [I-53A]	> 10000
C[C@@H](OCC1CCC(F)(F)CC1)[C@H](NC(=O)[C@@H]1CN(C(=O)c2cn[nH]c2)CC12CN(C(=O)C1(C(F)(F)F)CC1)C2)C(=O)N1CCC(F)(F)CC1 [I-188A]	10 to 100
CNC(=O)[C@H](CCCc1ccccc1)NC(=O)[C@H]1CN(C(=O)c2cnn(Cc3ccccc3)c2)CC12CN(C(=O)[C@H]1CC1(C)C)C2 [I-101B]	> 10000
CNC(=O)[C@@H](NC(=O)[C@@H]1CN(C(=O)c2cncs2)CC12CN(C(=O)[C@H]1CC1(C)C)C2)[C@@H](C)OC1CC2CCC1CC2 (stereo partly drawn) [I-464]	10 to 100
CNC(=O)[C@@H](NC(=O)[C@@H]1CN(C(=O)c2cnc(COC(C)(C)C)s2)CC12CN(C(=O)[C@H]1CC1(C)C)C2)[C@@H](C)OCC1CCCCC1 [I-175A]	≤ 10
C[C@@H](OC1(C2CCCCC2)CC1)[C@H](NC(=O)[C@@H]1CN(C(=O)c2cncs2)CC12CN(C(=O)[C@H]1CC1(C)C)C2)C(=O)N1CCCCC1 [I-357]	10 to 100
CC1(C)C[C@@H]1C(=O)N1CC2(CN(C(=O)c3cnn(Cc4ccccc4)c3)C[C@H]2C(=O)NCc2ccc(C(F)(F)F)nn2)C1 [I-392]	1000 to 10000
CC1(C)C[C@@H]1C(=O)N1CC2(CN(C(=O)c3cnn(Cc4ccccc4)c3)C[C@H]2C(=O)N2CC[C@@H](OCC3CCCCC3)C2)C1 [I-235]	100 to 1000
CNC(=O)[C@@H](NC(=O)[C@@H]1CN(C(=O)Nc2cnn(Cc3ccccc3)c2)CC12CN(C(=O)[C@H]1CC1(C)C)C2)[C@@H](C)OCc1ccccc1 [I-48A, (S)—N6-(1-benzyl-1H-pyrazol-4-yl)-N8-((2S,3R)-3-(benzyloxy)-1-(methylamino)-1-oxobutan-2-yl)-2-((S)-2,2-dimethylcyclopropane-1-carbonyl)-2,6-diazaspiro[3.4]octane-6,8-dicarboxamide]	> 10000
C[C@@H](OCC1CCCCC1)[C@H](NC(=O)[C@H]1CN(C(=O)c2cn[nH]c2)CC12CN(C(=O)[C@H]1CC1(C)C)C2)C(=O)N1CCC(F)(F)CC1 [I-154B]	1000 to 10000
CNC(=O)[C@@H](NC(=O)C1CN(Cc2n[nH]c3ccccc23)CC12CN(C(=O)[C@H]1CC1(C)C)C2)[C@@H](C)OCc1ccccc1 (stereo partly drawn) [I-159]	> 10000
COC[C@@H]1CCCN(C(=O)[C@@H](NC(=O)C2CN(C(=O)c3cncs3)CC23CN(C(=O)[C@H]2CC2(C)C)C3)[C@@H](C)OCC2CCCCC2)C1 (stereo partly drawn) [I-195]	≤ 10
CC(C)O[C@H]1C[C@H](NC(=O)[C@@H]2CN(C(=O)c3cnn(Cc4ccccc4)c3)CC23CN(C(=O)[C@H]2CC2(C)C)C3)C1 [I-233]	> 10000

SMILES	IC50 [nM]
C[C@@H](OCc1ccccc1)[C@H](NC(=O)C1CN(C(=O)c2cnn(Cc3ccccc3)c2)CC12CN(C(=O)[C@H]1CC1(C)C)C2)C(=O)N1CCC(F)(F)CC1 (stereo partly drawn) [I-85]	10 to 100
CO[C@H](C)[C@H](NC(=O)[C@@H]1CN(C(=O)c2cnn(C)c2)CC12CN(C(=O)[C@H]1CC1(C)C)C2)C(=O)N1CCCCC1 [I-303]	> 10000
CN(C(=O)[C@H]1CCCN(C(=O)[C@@H]2CN(C(=O)c3cnn(Cc4ccccc4)c3)CC23CN(C(=O)[C@H]2CC2(C)C)C3)C1)C1CCCCC1 [I-179]	1000 to 10000
CNC(=O)[C@@H](NC(=O)[C@H]1CN(C(=O)c2c[nH]c3ccccc23)CC12CN(C(=O)[C@H]1CC1(C)C)C2)[C@@H](C)OCc1ccccc1 [I-72B]	> 10000
C[C@@H](OCC1CCCCC1)[C@@H](COC1CCNCC1)NC(=O)[C@@H]1CN(C(=O)c2cncs2)CC12CN(C(=O)[C@H]1CC1(C)C)C2 [I-329]	≤ 10
CNC(=O)[C@@H](NC(=O)[C@H]1CN(C(=O)c2cnn(Cc3ccccc3)c2)CC12CN(C(=O)CC(F)(F)F)C2)[C@@H](C)OCc1ccccc1 [I-87B]	> 10000
CNC(=O)[C@@H](NC(=O)[C@@H]1CN(C(=O)Cc2cn[nH]c2)CC12CN(C(=O)[C@H]1CC1(C)C)C2)[C@@H](C)OCc1ccccc1 [I-358]	> 10000
COC[C@H]1CCCN(C(=O)[C@@H](NC(=O)[C@@H]2CN(C(=O)c3cncs3)CC23CN(C(=O)C(C)(C)C2CC2)C3)[C@@H](C)OCC2CCCCC2)C1 [I-389]	≤ 10
COC[C@H]1CCCN(C(=O)[C@@H](NC(=O)[C@@H]2CN(C(=O)c3cncs3)CC23CN(C(=O)[C@H]2CC2(C)C)C3)[C@@H](C)OCc2ccc(C(F)(F)F)cc2)C1 [I-319]	≤ 10
C[C@@H](OCc1ccccc1)[C@H](NC(=O)C1CN(C(=O)c2cnn(Cc3ccccc3)c2)CC12CN(C(=O)[C@H]1CC1(C)C)C2)C(=O)O (stereo partly drawn) [I-9, (2S,3R)-2-(6-(1-benzyl-1H-pyrazole-4-carbonyl)-2-((S)-2,2-dimethylcyclopropanecarbonyl)-2,6-diazaspiro[3.4]octane-8-carboxamido)-3-(benzyloxy)butanoic acid]	100 to 1000
CNC(=O)[C@H](COCc1ccccc1)NC(=O)[C@H]1CN(C(=O)c2cnn(Cc3ccccc3)c2)CC12CN(C(=O)C(C)(C)C)C2 [I-100B]	> 10000
CNC(=O)[C@@H](NC(=O)[C@@H]1CN(C(=O)c2cncs2)CC12CN(C(=O)[C@H]1CC1(C)C)C2)C1(OCC2CCCCC2)CC1 [I-401]	10 to 100
CNC(=O)[C@@H](NC(=O)[C@@H]1CN(C(=O)c2cnn(CC3CCOCC3)c2)CC12CN(C(=O)[C@H]1CC1(C)C)C2)[C@@H](C)OCc1ccccc1 [I-95A]	100 to 1000
CC1(C)C[C@@H]1C(=O)N1CC2(CN(C(=O)c3cnn(Cc4ccccc4)c3)C[C@@H]2C(=O)N[C@H]2CCc3cc(Cl)ccc32)C1 [I-133B]	1000 to 10000
C[C@@H](OCC1CCCCC1)[C@H](NC(=O)C1CN(C(=O)c2cnn(Cc3ccccc3)c2)CC12CN(C(=O)[C@H]1CC1(C)C)C2)C(=O)N1CCC(F)(F)CC1 (stereo partly drawn) [I-149 mixture]	≤ 10
COC(=O)C1(NC(=O)[C@@H]2CN(C(=O)c3cnn(Cc4ccccc4)c3)CC23CN(C(=O)[C@H]2CC2(C)C)C3)COC1 [I-142B]	> 10000
CNC(=O)[C@@H](NC(=O)[C@@H]1CN(C(=O)c2cnc(C(C)(C)C)s2)CC12CN(C(=O)[C@H]1CC1(C)C)C2)[C@@H](C)OCC1CCCCC1 [I-229A]	> 10000
CNC(=O)[C@@H](NC(=O)[C@@H]1CN(C(=O)c2cncs2)CC12CN(C(=O)CC1CC1)C2)[C@@H](C)OCC1CCCCC1 [I-103A]	100 to 1000
CNC(=O)[C@@H](NC(=O)[C@H]1CN(C(=O)c2cnn(Cc3ccccc3)c2)CC12CN(C(=O)[C@H]1CC1(C)C)C2)[C@@H](C)OCC1(C(F)(F)F)CC1 [I-205B]	1000 to 10000
CC1(C)C[C@@H]1C(=O)N1CC2(CN(C(=O)c3cnn(Cc4ccccc4)c3)C[C@@H]2C(=O)N2CCCC(Cc3ccccc3)C2)C1 (stereo partly drawn) [I-91B]	> 10000
CC1(C)C[C@@H]1C(=O)N1CC2(CN(C(=O)c3cnn(Cc4ccccc4)c3)C[C@H]2C(=O)N2CCC(Cc3ccccc3)CC2)C1 [I-58A]	100 to 1000
C[C@@H](OCC1CCCCC1)[C@@H](COC1CCOCC1)NC(=O)[C@@H]1CN(C(=O)c2cncs2)CC12CN(C(=O)[C@H]1CC1(C)C)C2 [I-331]	≤ 10
